In assay [1] the test system is S. pneumoniae. The assay can be described thus: Resistance categories of pneumococcal RASE database isolates (MIC vs EUCAST breakpoints, ancestral state reconstruction). It counts as cell-based, Streptococcus pneumoniae. As to conditions: for resistance phenotype of best match database isolate: best match in the Massachusetts RASE database for SP03 and SP06; for number of isolates susceptible: out of all 616 pneumococcal isolates, includes categories inferred by ancestral state reconstruction.
From the text: (§1) For all antibiotics, RASE associates individual isolates with a resistance category, susceptible or non-susceptible. First, MIC values are mined using regular expressions from the available textual antibiograms, i.e., strings describing an interval of possible MIC values. Second, the acquired intervals are compared to the antibiotic-specific breakpoints (see below). If a given breakpoint is above or below the interval, susceptibility or non-susceptibility is reported, respectively. However, no category can be assigned at this step if the breakpoint lies within the extracted interval, an antibiogram is entirely missing, or an antibiogram is present, but parsing failed. Third, missing categories are inferred using ancestral state reconstruction on the associated phylogenetic tree while maximizing parsimony (i.e., minimizing the number of nodes switching its resistance category).
The RASE database is constructed with the standard EUCAST breakpoints ([g/ml]): Benzylpenicillin (PEN): 0.06, Ceftriaxone (CRO): 0.25, […]: 1.00, Erythromycin (ERY): 0.25, and Tetracycline (TET): 1.00. The breakpoints are set conservatively, i.e., non-susceptibility is preferred over susceptibility for intermediate values. While the Inventors have used the above values in the present work, others may be readily defined and the database rapidly updated.
as §1, with “(FIG. 6).” for “(see below).”, “category; FIG. 7).” for “category).”
(§2) The pneumococcal RASE database was constructed with the standard EUCAST breakpoints^16 ([g/ml]): benzylpenicillin (PEN): 0.06, ceftriaxone (CRO): 0.25, trimethoprim-sulfamethoxazole (SXT): 1.00, erythromycin (ERY): 0.25, and tetracycline (TET): 1.00. The gonococcal RASE database was constructed with the CDC GISP breakpoints ([g/ml]): azithromycin (AZM): 2.0, cefixime (CFM): 0.25, ciprofloxacin (CIP): 1.0, and ceftriaxone (CRO): 0.125. While the Inventors have used the above values in the present work, others may be readily defined and the database rapidly updated.
(§3) The Inventors assigned each pneumococcal and gonococcal isolate to an antibiotic-specific resistance category using the EUCAST breakpoints and CDC GISP breakpoints, respectively. Since MIC data were not always available, the Inventors estimated the likely resistance phenotype of unannotated isolates using ancestral state reconstruction.

Assay [2] deals with N. gonorrhoeae. As to the kind of experiment: MIC of gonococcal isolates against CDC GISP breakpoint. It counts as cell-based, Neisseria gonorrhoeae. Also noted: unit not given beside the values.
From the text: as §2, with “updated. This is especially useful in the case where breakpoints may vary depending on the site of infection (as is the case with pneumococcal meningitis and otitis media, where lower MICs are considered to be resistant).” for “updated.”

The test system of assay [3] is N. gonorrhoeae. It counts as cell-based, Neisseria gonorrhoeae. As to conditions: out of all 1102 gonococcal isolates; ancestral reconstruction only for cefixime.
From the text: as §1, with “(FIG. 6).” for “(see below).”, “category; FIG. 7).” for “category).”
as §2, §3

The test system of assay [4] is S. pneumoniae. As to the kind of experiment: Resistance of streptococcus in metagenomic sputum samples by agar diffusion, EUCAST methodology and breakpoints. It counts as cell-based, Streptococcus pneumoniae. As to conditions: metagenomic sputum sample SP10 (Swedish 15A clone, ST63). The method, then:
Resistance of streptococcus in the metagenomic samples (SP07-SP12) was determined by agar diffusion using the EUCAST methodology and breakpoints. First, the inoculated agar plates were incubated at 37° C. overnight and then examined for growth with the potential for re-incubation up to 48 hours. Then, the samples were screened to oxacillin: if the zone diameter r was >20 mm, the isolate was considered sensitive to benzylpenicillin, otherwise a full MIC measurement to benzylpenicillin was done.

For assay [5], the system named is S. pneumoniae. As to the kind of experiment: Antibiograms of additional pneumococcal isolates not in the RASE database, EUCAST breakpoints. It counts as cell-based, Streptococcus pneumoniae. As to conditions: 23F isolates SP03 and SP06, related to Tennessee 23F-4 clone. The source says: The Inventors examined four additional pneumococcal isolates (FIG. 14b) for which the serotype and limited antibiogram and lineage data were known. The Inventors compared three characteristics of the sample to assess the Inventors' performance: the serotype, the MLST sequence type (ST) and the antibiograms (benzylpenicillin, ceftriaxone, trimethoprim-sulfamethoxazole, erythromycin, and tetracycline resistance according to EUCAST breakpoints).

As for `CC1(C)S[C@@H]2[C@H](NC(=O)Cc3ccccc3)C(=O)N2[C@H]1C(=O)O` [benzylpenicillin], in the assay on S. pneumoniae [1], the “resistance phenotype of best match database isolate” value was “resistant” and the “number of isolates susceptible” value is recorded as 341. Regarding `CO/N=C(\C(=O)N[C@@H]1C(=O)N2C(C(=O)O)=C(CSc3nc(=O)c(=O)[nH]n3C)CS[C@H]12)c1csc(N)n1` [ceftriaxone], the MIC is on record as 0.062 in the assay with N. gonorrhoeae [2] (best match of GC05 in the RASE database) and 0.125 in the assay on N. gonorrhoeae [2] (multi-drug resistant isolate GC05, equal to CDC GISP breakpoint). Further, the “number of isolates associated with resistance” value (shortened to “number of isolates associated”) in the assay on N. gonorrhoeae [3] was determined as 69. Also, the “number of isolates susceptible” value in the assay on S. pneumoniae [1] was 485. With `C=CC1=C(C(=O)O)N2C(=O)[C@@H](NC(=O)/C(=N\OCC(=O)O)c3csc(N)n3)[C@H]2SC1` [cefixime], in the assay on N. gonorrhoeae [3], the “number of isolates associated” value came to 266.

With `O=C(O)c1cn(C2CC2)c2cc(N3CCNCC3)c(F)cc2c1=O` [ciprofloxacin], in the assay with N. gonorrhoeae [3], the “number of isolates associated” value turned out to be 594.

As to `CC[C@H]1OC(=O)[C@H](C)[C@@H](O[C@H]2C[C@@](C)(OC)[C@@H](O)[C@H](C)O2)[C@H](C)[C@@H](O[C@@H]2O[C@H](C)C[C@H](N(C)C)[C@H]2O)[C@](C)(O)C[C@@H](C)CN(C)[C@H](C)[C@@H](O)[C@]1(C)O` [azithromycin], in the assay on N. gonorrhoeae [3], the “number of isolates associated” value turned out to be 232. On to `COc1cc(Cc2cnc(N)nc2N)cc(OC)c1OC` [trimethoprim, Trimethoprim], for which, in the assay on S. pneumoniae [1], the “number of isolates susceptible” value was determined as 480. For trimethoprim-sulfamethoxazole, in the assay on S. pneumoniae [1], the “number of isolates susceptible” value came to 480. Take `CN(C)[C@@H]1C(O)=C(C(N)=O)C(=O)[C@@]2(O)C(O)=C3C(=O)c4c(O)cccc4[C@@](C)(O)[C@H]3C[C@@H]12` [tetracycline]: the “number of isolates susceptible” value in the assay on S. pneumoniae [1] worked out at 551.

As for `Cc1onc(-c2ccccc2)c1C(=O)N[C@@H]1C(=O)N2[C@@H]1SC(C)(C)[C@@H]2C(=O)O` [oxacillin], in the assay with S. pneumoniae [4], the “resistance phenotype of sample” value is recorded as “resistant”. In the case of `CC[C@H]1OC(=O)[C@H](C)[C@@H](O[C@H]2C[C@@](C)(OC)[C@@H](O)[C@H](C)O2)[C@H](C)[C@@H](O[C@@H]2O[C@H](C)C[C@H](N(C)C)[C@H]2O)[C@](C)(O)C[C@@H](C)C(=O)[C@H](C)[C@@H](O)[C@]1(C)O` [erythromycin], the “resistance phenotype of samples” value with S. pneumoniae [5] is “resistant”. In addition, in the assay on S. pneumoniae [4], the “resistance phenotype of sample” value was “resistant”. For the same compound, in the assay with S. pneumoniae [1], the “resistance phenotype of best match database isolate” value is recorded as “susceptible” and the “number of isolates susceptible” value is given as 484.

(Values after patent US20210246502A1, “RAPID IDENTIFICATION OF STRAINS FROM SEQUENCE DATA” (priority 2018, published 2021).)
